The supplement of paper PMC10307832

Assays:
Test in all cases: relative viability (nuclei count vs DMSO), 5 days (fraction); higher = more cells survive
H3255 = system: H3255
Outline: (§1)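 The day after seeding in 1536-well plates, lung cancer cell lines were treated by pin tool with a single drug, or with a fixed anchor-drug dose together with five library-drug doses (not always all listed) in √10 steps. After 5 days, a combined fix-and-stain solution (final 0.05% Triton X-100, 1% formaldehyde, 1 ug/ml Hoechst) was added. Nuclei counted on 4× images gave relative viability as treated counts over vehicle counts, reported as the median of duplicate plates.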

CAL-12T = system: CAL-12T
Outline: as §1

HOP-62 = system: HOP-62
Outline: as §1

NCI-H647 = system: NCI-H647
Outline: as §1

LXF-289 = system: LXF-289
Outline: as §1

NCI-H2009 = system: NCI-H2009
Outline: as §1

NCI-H522 = system: NCI-H522
Outline: as §1

NCI-H2170 = system: NCI-H2170
Outline: as §1

NCI-H2087 = system: NCI-H2087
Outline: as §1

SW 900 = system: SW 900
Outline: as §1

NCI-H1755 = system: NCI-H1755
Outline: as §1

ABC-1 = system: ABC-1
Outline: as §1

NCI-H322M = system: NCI-H322M
Outline: as §1

NCI-H1734 = system: NCI-H1734
Outline: as §1

EMC-BAC-2 = system: EMC-BAC-2
Outline: as §1

NCI-H441 = system: NCI-H441
Outline: as §1

201T = system: 201T
Outline: as §1

NCI-H2126 = system: NCI-H2126
Outline: as §1

NCI-H1651 = system: NCI-H1651
Outline: as §1

LK-2 = system: LK-2
Outline: as §1

COCC1(CO)C(=O)C2CCN1CC2 (stereo unspecified) [PRIMA-1MET] + CC(=O)c1c(C)c2cnc(Nc3ccc(N4CCNCC4)cn3)nc2n(C2CCCC2)c1=O [Palbociclib] (partner 0.5 µM)
relative viability (H3255; first compound 0.2 µM): 0.319
relative viability (H3255; first compound 0.6325 µM): 0.293
relative viability (H3255; first compound 2 µM): 0.312
relative viability (H3255; first compound 6.325 µM): 0.294
relative viability (H3255; first compound 20 µM): 0.33
relative viability (CAL-12T; first compound 0.2 µM): 0.339
relative viability (CAL-12T; first compound 0.6325 µM): 0.373
relative viability (CAL-12T; first compound 2 µM): 0.446
relative viability (CAL-12T; first compound 6.325 µM): 0.439
relative viability (CAL-12T; first compound 20 µM): 0.0494
relative viability (HOP-62; first compound 0.2 µM): 0.549
relative viability (HOP-62; first compound 0.6325 µM): 0.385
relative viability (HOP-62; first compound 2 µM): 0.469
relative viability (HOP-62; first compound 6.325 µM): 0.475
relative viability (HOP-62; first compound 20 µM): 0.317
relative viability (NCI-H647; first compound 0.2 µM): 0.449
relative viability (NCI-H647; first compound 0.6325 µM): 0.387
relative viability (NCI-H647; first compound 2 µM): 0.276
relative viability (NCI-H647; first compound 6.325 µM): 0.481
relative viability (NCI-H647; first compound 20 µM): 0.42
relative viability (LXF-289; first compound 0.2 µM): 0.642
relative viability (LXF-289; first compound 0.6325 µM): 0.662
relative viability (LXF-289; first compound 2 µM): 0.734
relative viability (LXF-289; first compound 6.325 µM): 0.594
relative viability (LXF-289; first compound 20 µM): 0.602
relative viability (NCI-H2009; first compound 0.2 µM): 0.185
relative viability (NCI-H2009; first compound 0.6325 µM): 0.251
relative viability (NCI-H2009; first compound 2 µM): 0.112
relative viability (NCI-H2009; first compound 6.325 µM): 0.215
relative viability (NCI-H2009; first compound 20 µM): 0.0008
relative viability (NCI-H522; first compound 0.2 µM): 1.05
relative viability (NCI-H522; first compound 0.6325 µM): 0.94
relative viability (NCI-H522; first compound 2 µM): 0.862
relative viability (NCI-H522; first compound 6.325 µM): 0.774
relative viability (NCI-H522; first compound 20 µM): 0.25
relative viability (NCI-H2170; first compound 0.2 µM): 0.422
relative viability (NCI-H2170; first compound 0.6325 µM): 0.36
relative viability (NCI-H2170; first compound 2 µM): 0.391
relative viability (NCI-H2170; first compound 6.325 µM): 0.449
relative viability (NCI-H2170; first compound 20 µM): 0.379
relative viability (NCI-H2087; first compound 0.6325 µM): 0.183
relative viability (NCI-H2087; first compound 2 µM): 0.22
relative viability (NCI-H2087; first compound 6.325 µM): 0.203
relative viability (NCI-H2087; first compound 20 µM): 0.13
relative viability (SW 900; first compound 0.2 µM): 0.601
relative viability (SW 900; first compound 0.6325 µM): 0.564
relative viability (SW 900; first compound 6.325 µM): 0.559
relative viability (SW 900; first compound 20 µM): 0.0834
relative viability (NCI-H1755; first compound 0.2 µM): 0.479
relative viability (NCI-H1755; first compound 0.6325 µM): 0.397
relative viability (NCI-H1755; first compound 2 µM): 0.43
relative viability (NCI-H1755; first compound 6.325 µM): 0.482
relative viability (NCI-H1755; first compound 20 µM): 0.459
relative viability (ABC-1; first compound 0.2 µM): 0.984
relative viability (ABC-1; first compound 2 µM): 0.482
relative viability (ABC-1; first compound 6.325 µM): 0.552
relative viability (ABC-1; first compound 20 µM): 0.181
relative viability (NCI-H322M; first compound 0.2 µM): 0.535
relative viability (NCI-H322M; first compound 0.6325 µM): 0.515
relative viability (NCI-H322M; first compound 6.325 µM): 0.525
relative viability (NCI-H322M; first compound 20 µM): 0.34
relative viability (NCI-H1734; first compound 0.2 µM): 0.362
relative viability (NCI-H1734; first compound 0.6325 µM): 0.306
relative viability (NCI-H1734; first compound 2 µM): 0.369
relative viability (NCI-H1734; first compound 6.325 µM): 0.345
relative viability (NCI-H1734; first compound 20 µM): 0.053
relative viability (EMC-BAC-2; first compound 0.2 µM): 0.586
relative viability (EMC-BAC-2; first compound 0.6325 µM): 0.466
relative viability (EMC-BAC-2; first compound 2 µM): 0.478
relative viability (EMC-BAC-2; first compound 6.325 µM): 0.503
relative viability (EMC-BAC-2; first compound 20 µM): 0.499
relative viability (NCI-H441; first compound 0.2 µM): 0.221
relative viability (NCI-H441; first compound 0.6325 µM): 0.227
relative viability (NCI-H441; first compound 2 µM): 0.192
relative viability (NCI-H441; first compound 6.325 µM): 0.201
relative viability (NCI-H441; first compound 20 µM): 0.205
relative viability (201T; first compound 0.2 µM): 0.386
relative viability (201T; first compound 0.6325 µM): 0.356
relative viability (201T; first compound 2 µM): 0.331
relative viability (201T; first compound 6.325 µM): 0.352
relative viability (201T; first compound 20 µM): 0.331
relative viability (NCI-H2126; first compound 0.2 µM): 0.335
relative viability (NCI-H2126; first compound 0.6325 µM): 0.336
relative viability (NCI-H2126; first compound 2 µM): 0.321
relative viability (NCI-H2126; first compound 6.325 µM): 0.372
relative viability (NCI-H2126; first compound 20 µM): 0.326
relative viability (NCI-H1651; first compound 0.2 µM): 0.602
relative viability (NCI-H1651; first compound 0.6325 µM): 0.389
relative viability (NCI-H1651; first compound 2 µM): 0.473
relative viability (NCI-H1651; first compound 6.325 µM): 0.569
relative viability (NCI-H1651; first compound 20 µM): 0.526
relative viability (LK-2; first compound 0.2 µM): 0.814
relative viability (LK-2; first compound 0.6325 µM): 0.705
relative viability (LK-2; first compound 2 µM): 0.534
relative viability (LK-2; first compound 6.325 µM): 0.211
relative viability (LK-2; first compound 20 µM): 0.0375
